Patent publication US10610586B2, “Compositions for antigen-specific induction of tolerance” (STALLERGENES, priority 2005, dated 2020)

Legend:
human T cells = assay: Gene expression by human T cells after coculture with adjuvant-treated DC (quantitative PCR); assay type: cell-based; settings: human DC treated with adjuvant 24 h, cultured with allogenic naive CD4+ T cells, mRNA 24 h to 5 days later; only above 2-fold increase considered significant
Method: Dendritic cells DC were treated with candidate adjuvants for 24 h, washed and cultured with purified allogenic naïve CD4+ T cells. mRNAs were extracted 24 h to 5 days later and gene expression was assessed by quantitative PCR with primers specific for the tested genes. Only data above 2-fold increase were considered as significant.
A human in vitro model, consisting of a coculture of human pretreated DC with allogenic T cells, has been used to select IL-10-inducing adjuvants. Briefly, human DC were treated with adjuvants. After 24 h, the DC were washed and cultured with allogenic naive CD4+ T cells. After 24 h to 5 days, gene expression in human T cells was assessed by quantitative PCR.

TGF-β = TGF-β production in supernatant of spleen cell cultures after sublingual tolerization; assay type: in vivo; settings: OVA-sensitized mice treated sublingually with OVA plus adjuvant; compared to PBS-treated mice or OVA alone
Method: For tolerance induction in a therapeutic model, sensitized mice were sublingually treated with OVA or OVA plus adjuvant every week, twice a week, during 2 months at a concentration of 500 μg (20 μl). Control mice were sensitized with OVA followed by sham tolerization with PBS. Dosage of TGF-β from supernatants of spleen cell cultures was performed with an ELISA kit (R&D systems). Mice were killed by cervical dislocation. Spleens cells were isolated and plated in triplicate in 96-well flat-bottomed ELISPOT plates (Millipore, Massachussets) at densities of 2×10^5 cells per well. Different conditions were used: medium alone, OVA (100μg/ml) and PMA (phorbol myristyl acetate) (50 ng/ml, Sigma)/ionomycin (500 ng/ml, Sigma) which was used as positive control. Spot forming cells (SFCs) were monitored for IFN-γ, IL-5 and IL10. Elispot kits were from R&D systems Europe.

[1] = tested on: BALB/c mice sensitized with OVA; assay: Sublingual tolerization in a therapeutic model of type I allergy: airway responsiveness by whole body plethysmography; assay type: in vivo; settings: adjuvant given sublingually together with OVA 500 μg twice a week for 2 months to OVA-sensitized mice; methacholine 50 mg/ml; compared to PBS-treated mice or OVA alone
Method: Sensitization was performed by two intraperitoneal (i.p.) injections in 14 days interval with 10 μg OVA adsorbed to 2 mg Al(OH)3 in a total volume of 100 μl. The sensitization was followed by a 20 min aerosol challenge with 1% w/v OVA on 5 consecutive days with an aerosol delivery system (Buxco Europe; Ltd, UK). Control animals were sham treated with sterile PBS. For tolerance induction in a therapeutic model, sensitized mice were sublingually treated with OVA or OVA plus adjuvant every week, twice a week, during 2 months at a concentration of 500 μg (20 μl). Control mice were sensitized with OVA followed by sham tolerization with PBS. Measurements of airway responsiveness were performed by whole body plethysmography (Buxco Europe; Ltd, UK), 48 h after the last challenge for sensitisation or tolerization. Airflow signals were recorded in response to aerosolized methacholine (50 mg/ml), 1 minute, four times. The higher value of Penh (enhanced pause) was taken into account for the calculation of the Penh index (Penh index=Penh measured/Penh PBS).

Question: Which results are given for Lactobacillus plantarum [L. plantarum]?
Answer: Gene expression by T cells: IL10 (human T cells): induce IL10 gene expression; TGF-β production in supernatant of spleen cell cultures (TGF-β): enhanced; airway responsiveness (Penh in response to methacholine) [1]: reduction of airway responsiveness
